{
  "source": "patent US20250170128A1",
  "about": "“Obicetrapib and SGLT2 Inhibitor Combination” (NE[…] B.V. (Dutch Chamber of Commerce No. 5597 1946), priority 2021, published 2025)",
  "origin": "cited, not measured here",
  "key": {"[1]": {"conditions": "clinical studies"}, "CETP": {"target": "T1, CETP (Homo sapiens, UniProt P11597)", "T1 construct": "CETP is a plasma protein secreted primarily by liver and adipose tissue", "T1 sequence (P11597 18-493)": "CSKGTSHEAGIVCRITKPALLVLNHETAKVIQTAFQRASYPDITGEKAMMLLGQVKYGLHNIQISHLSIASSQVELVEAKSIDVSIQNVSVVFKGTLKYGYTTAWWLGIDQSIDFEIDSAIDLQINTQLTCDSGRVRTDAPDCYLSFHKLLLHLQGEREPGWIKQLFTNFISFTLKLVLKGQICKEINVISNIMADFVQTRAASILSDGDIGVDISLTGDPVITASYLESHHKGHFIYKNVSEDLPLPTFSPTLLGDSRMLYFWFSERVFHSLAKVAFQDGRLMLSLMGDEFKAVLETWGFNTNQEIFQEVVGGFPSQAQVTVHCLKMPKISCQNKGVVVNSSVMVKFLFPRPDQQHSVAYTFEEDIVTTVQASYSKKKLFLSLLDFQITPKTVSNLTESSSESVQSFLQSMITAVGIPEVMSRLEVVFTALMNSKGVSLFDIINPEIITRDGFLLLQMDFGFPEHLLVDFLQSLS", "conditions": "repeated daily dosages (once a day) as low as 2.5 mg"}},
  "data": [
    {"smiles": "CCOC(=O)N1c2ccc(C(F)(F)F)cc2[C@@H](N(Cc2cc(C(F)(F)F)cc(C(F)(F)F)c2)c2ncc(OCCCC(=O)O)cn2)C[C@H]1CC", "note": "[compound of Formula (I), (2R,4S)-4-{[3,5-bis(trifluoromethyl)benzyl]-[5-(3-carboxypropoxy)pyrimidin-2-yl]amino}-2-ethyl-6-trifluoromethyl-3,4-dihydro-2H-quinoline-1-carboxylic acid ethyl ester]", "values": [
      {"measurement": "serious side effects", "setting": "[1]", "result": "does not lead to serious side effects"},
      {"measurement": "tolerability", "setting": "[1]", "result": "well tolerated"},
      {"measurement": "CETP inhibition", "setting": "CETP", "result": "near complete CETP-inhibition"}
    ]}
  ]
}
